Measured values reported in publication PMC9851200, “Multiparameter phenotypic screening for endogenous TFEB and TFE3 translocation identifies novel chemical series modulating lysosome function” (Autophagy, 2022).
Where two headings read alike, the source gives them in different places.

Assays:
Assay in all cases: biochemical
Format in all cases: binding
[1] = target: cellular kinases of SH-SY5Y cells (Homo sapiens, UniProt Q2M2I8); details: 2µM; SH-SY5Y cells; labeling site Lys2; peptide DLKVENILLHDR
Excerpt: (§1) As KINOMEscan is an in vitro assay, and as different cell types have variable kinase expression profiles we sought to determine the kinase binding profile in our SH-SY5Y TFEB-relocalization cell model. […] Bound kinases were pulled down and analyzed by mass spectrometry to determine the in situ kinase binding profile for each compound.

[2] = target: cellular kinases of SH-SY5Y cells (Homo sapiens, UniProt P54760); details: 2µM; SH-SY5Y cells; Labeling Site Activation Loop; FLEENSSDPTYTSSLGGKIPIR; read-out: KiNativ in-cell binding, % Inhibition, EphB4
Excerpt: as §1

[3] = target: T1, cellular kinases of SH-SY5Y cells (Homo sapiens, UniProt Q9UL54); details: 2µM; SH-SY5Y cells; Labeling Site Lys2; DVKAGNILLSEPGLVK; read-out: KiNativ in-cell binding, % Inhibition, TAOK2/TAO2
T1 construct: endogenous in cells; host or cells: SH-SY5Y
Excerpt: as §1

[4] = target: cellular kinases of SH-SY5Y cells (Homo sapiens, UniProt O00329); details: 2µM; SH-SY5Y cells; Labeling Site ATP; VNWLAHNVSKDNRQ; read-out: KiNativ in-cell binding, % Inhibition, PIK3CD
Excerpt: as §1

[5] = target: cellular kinases of SH-SY5Y cells (Homo sapiens, UniProt Q96GD4); details: 2µM; SH-SY5Y cells; Labeling Site Lys1; SHFIVALKVLFK; read-out: KiNativ in-cell binding, % Inhibition, AURKB/AurB
Excerpt: as §1

[6] = target: cellular kinases of SH-SY5Y cells (Homo sapiens, UniProt P07948); details: 2µM; SH-SY5Y cells; labeling site Lys1; peptide VAVKTLKPGTMSVQAFLEEANLMK
Excerpt: as §1

[7] = target: cellular kinases of SH-SY5Y cells (Homo sapiens, UniProt P41240); details: 2µM, SH-SY5Y cells, read-out: KiNativ in-cell binding, % Inhibition, CSK
cellular kinases of SH-SY5Y cells (Homo sapiens, UniProt P41240), sequence (P41240 whole entry): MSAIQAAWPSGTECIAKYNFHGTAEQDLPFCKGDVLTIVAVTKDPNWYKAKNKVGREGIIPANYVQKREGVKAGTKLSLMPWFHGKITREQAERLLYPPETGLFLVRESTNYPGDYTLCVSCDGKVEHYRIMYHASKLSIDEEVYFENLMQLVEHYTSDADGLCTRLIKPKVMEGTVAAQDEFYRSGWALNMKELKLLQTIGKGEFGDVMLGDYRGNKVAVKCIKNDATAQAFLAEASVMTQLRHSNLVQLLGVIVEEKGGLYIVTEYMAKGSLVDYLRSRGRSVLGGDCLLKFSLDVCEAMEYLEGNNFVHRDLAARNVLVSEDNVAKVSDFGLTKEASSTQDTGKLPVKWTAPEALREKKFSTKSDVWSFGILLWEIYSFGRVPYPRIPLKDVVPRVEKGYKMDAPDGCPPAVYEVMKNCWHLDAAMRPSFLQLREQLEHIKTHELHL
Excerpt: as §1

[8] = target: T2, cellular kinases of SH-SY5Y cells (Homo sapiens, UniProt Q12851); details: 2µM; SH-SY5Y cells; Labeling Site Lys2; DIKGANLLLTLQGDVK; read-out: KiNativ in-cell binding, % Inhibition, GCK
T2 construct: endogenous in cells; host or cells: SH-SY5Y
Excerpt: as §1

[9] = target: cellular kinases of SH-SY5Y cells (Homo sapiens, UniProt P00533); details: 2µM, SH-SY5Y cells, read-out: KiNativ in-cell binding, % Inhibition, EGFR, EGFR-L858R
cellular kinases of SH-SY5Y cells (Homo sapiens, UniProt P00533), sequence (P00533 25-1210): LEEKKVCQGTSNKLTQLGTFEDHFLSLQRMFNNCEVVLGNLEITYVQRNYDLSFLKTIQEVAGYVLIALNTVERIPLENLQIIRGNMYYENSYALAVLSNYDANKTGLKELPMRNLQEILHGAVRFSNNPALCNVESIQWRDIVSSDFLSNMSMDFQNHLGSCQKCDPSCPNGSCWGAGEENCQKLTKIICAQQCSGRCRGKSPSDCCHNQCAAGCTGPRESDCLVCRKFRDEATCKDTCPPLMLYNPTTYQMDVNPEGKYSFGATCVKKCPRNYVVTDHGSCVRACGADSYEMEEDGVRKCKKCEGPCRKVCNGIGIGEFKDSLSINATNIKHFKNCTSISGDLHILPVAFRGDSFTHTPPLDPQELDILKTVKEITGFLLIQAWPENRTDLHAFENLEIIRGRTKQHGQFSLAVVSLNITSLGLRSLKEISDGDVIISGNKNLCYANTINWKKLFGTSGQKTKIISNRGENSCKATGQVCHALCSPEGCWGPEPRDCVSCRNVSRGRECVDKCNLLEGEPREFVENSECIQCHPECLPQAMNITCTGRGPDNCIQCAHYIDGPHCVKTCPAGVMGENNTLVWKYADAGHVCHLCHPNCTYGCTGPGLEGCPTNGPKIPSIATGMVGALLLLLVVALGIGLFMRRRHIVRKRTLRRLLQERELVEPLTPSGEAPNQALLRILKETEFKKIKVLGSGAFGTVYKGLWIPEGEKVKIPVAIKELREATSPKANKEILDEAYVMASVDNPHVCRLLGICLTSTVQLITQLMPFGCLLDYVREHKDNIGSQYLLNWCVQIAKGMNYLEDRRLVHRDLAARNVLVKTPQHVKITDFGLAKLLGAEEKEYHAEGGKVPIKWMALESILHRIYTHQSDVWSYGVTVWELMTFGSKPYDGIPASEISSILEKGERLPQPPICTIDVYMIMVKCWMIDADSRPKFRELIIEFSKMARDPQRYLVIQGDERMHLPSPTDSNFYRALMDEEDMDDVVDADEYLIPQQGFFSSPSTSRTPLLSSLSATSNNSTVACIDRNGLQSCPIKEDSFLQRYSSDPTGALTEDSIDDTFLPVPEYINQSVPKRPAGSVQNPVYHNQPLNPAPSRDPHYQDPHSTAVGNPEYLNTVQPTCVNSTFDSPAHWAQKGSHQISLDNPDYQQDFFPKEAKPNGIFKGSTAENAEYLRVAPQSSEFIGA
Excerpt: as §1

[10] = target: T3, cellular kinases of SH-SY5Y cells (Homo sapiens, UniProt Q07912); details: 2µM, SH-SY5Y cells, read-out: KiNativ in-cell binding, % Inhibition, TNK2/ACK
T3 construct: endogenous in cells; host or cells: SH-SY5Y
T3 sequence (Q07912 whole entry): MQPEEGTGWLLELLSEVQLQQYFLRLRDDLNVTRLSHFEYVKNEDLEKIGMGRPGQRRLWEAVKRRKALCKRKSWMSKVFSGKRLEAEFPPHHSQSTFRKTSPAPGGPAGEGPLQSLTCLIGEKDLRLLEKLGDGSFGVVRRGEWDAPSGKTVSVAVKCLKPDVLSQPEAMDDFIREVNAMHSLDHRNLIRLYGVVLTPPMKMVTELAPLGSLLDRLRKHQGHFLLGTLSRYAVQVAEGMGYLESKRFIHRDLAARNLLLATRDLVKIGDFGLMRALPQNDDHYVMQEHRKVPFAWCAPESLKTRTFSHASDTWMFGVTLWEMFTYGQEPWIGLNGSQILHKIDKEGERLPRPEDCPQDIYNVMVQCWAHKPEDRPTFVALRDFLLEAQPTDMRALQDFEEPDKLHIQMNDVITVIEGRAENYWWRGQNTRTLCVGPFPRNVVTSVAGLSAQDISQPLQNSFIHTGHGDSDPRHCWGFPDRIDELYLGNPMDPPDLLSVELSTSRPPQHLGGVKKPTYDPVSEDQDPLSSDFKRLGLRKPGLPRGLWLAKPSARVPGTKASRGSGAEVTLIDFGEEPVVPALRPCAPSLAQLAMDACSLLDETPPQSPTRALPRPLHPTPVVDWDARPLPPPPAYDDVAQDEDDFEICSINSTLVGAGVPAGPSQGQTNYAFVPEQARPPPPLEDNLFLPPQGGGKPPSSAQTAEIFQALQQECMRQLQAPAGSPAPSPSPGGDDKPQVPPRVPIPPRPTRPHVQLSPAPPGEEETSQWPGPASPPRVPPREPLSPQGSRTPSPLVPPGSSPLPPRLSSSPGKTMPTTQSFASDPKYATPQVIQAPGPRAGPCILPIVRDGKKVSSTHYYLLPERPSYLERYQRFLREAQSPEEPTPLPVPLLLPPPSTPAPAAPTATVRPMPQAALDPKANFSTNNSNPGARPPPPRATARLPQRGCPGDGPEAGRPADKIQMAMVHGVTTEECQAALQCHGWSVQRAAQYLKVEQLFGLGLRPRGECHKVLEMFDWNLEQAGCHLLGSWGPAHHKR
Excerpt: as §1

[11] = target: cellular kinases of SH-SY5Y cells (Homo sapiens, UniProt Q8TDX7); details: 2µM; SH-SY5Y cells; labeling site Lys1; peptide AACLLDGVPVALKK
Excerpt: as §1

[12] = target: T4, cellular kinases of SH-SY5Y cells (Homo sapiens, UniProt Q9H2G2); details: 2µM, SH-SY5Y cells
T4 construct: endogenous in cells; host or cells: SH-SY5Y
T4 sequence (Q9H2G2 whole entry): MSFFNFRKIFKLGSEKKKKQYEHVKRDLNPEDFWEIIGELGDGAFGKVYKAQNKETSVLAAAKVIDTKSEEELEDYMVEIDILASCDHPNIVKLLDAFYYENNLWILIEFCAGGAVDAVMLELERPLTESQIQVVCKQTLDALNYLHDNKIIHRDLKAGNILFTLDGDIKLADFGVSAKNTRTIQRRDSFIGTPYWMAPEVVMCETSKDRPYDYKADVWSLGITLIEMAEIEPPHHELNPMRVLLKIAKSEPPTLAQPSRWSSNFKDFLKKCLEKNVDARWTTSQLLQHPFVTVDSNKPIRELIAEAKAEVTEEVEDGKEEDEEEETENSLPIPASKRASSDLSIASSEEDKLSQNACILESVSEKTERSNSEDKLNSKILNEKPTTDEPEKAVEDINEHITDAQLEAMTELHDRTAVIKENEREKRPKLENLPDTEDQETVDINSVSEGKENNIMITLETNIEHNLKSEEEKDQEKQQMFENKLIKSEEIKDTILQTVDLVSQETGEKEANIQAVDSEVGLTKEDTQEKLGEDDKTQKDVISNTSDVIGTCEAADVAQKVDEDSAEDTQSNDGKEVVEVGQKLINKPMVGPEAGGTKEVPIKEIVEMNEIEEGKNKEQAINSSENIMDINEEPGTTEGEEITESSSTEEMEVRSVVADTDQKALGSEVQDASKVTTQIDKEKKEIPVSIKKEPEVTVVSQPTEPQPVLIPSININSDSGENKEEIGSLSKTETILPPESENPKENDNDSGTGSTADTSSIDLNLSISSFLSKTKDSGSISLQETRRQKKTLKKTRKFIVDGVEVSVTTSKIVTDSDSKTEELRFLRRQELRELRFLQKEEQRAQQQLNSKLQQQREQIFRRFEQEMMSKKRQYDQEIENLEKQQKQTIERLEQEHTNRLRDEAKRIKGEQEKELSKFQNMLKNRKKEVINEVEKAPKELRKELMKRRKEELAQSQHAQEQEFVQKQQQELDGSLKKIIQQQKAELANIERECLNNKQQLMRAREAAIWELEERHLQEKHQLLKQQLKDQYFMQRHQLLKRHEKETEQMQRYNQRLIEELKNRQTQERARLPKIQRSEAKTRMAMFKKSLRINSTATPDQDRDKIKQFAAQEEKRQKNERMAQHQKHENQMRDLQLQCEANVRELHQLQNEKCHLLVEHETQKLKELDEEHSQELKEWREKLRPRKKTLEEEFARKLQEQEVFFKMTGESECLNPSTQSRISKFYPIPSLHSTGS
Excerpt: as §1

[13] = target: T5, cellular kinases of SH-SY5Y cells (Homo sapiens, UniProt O95835); details: 2µM, SH-SY5Y cells, read-out: KiNativ in-cell binding, % Inhibition, LATS1
T5 construct: endogenous in cells; host or cells: SH-SY5Y
T5 sequence (O95835 whole entry): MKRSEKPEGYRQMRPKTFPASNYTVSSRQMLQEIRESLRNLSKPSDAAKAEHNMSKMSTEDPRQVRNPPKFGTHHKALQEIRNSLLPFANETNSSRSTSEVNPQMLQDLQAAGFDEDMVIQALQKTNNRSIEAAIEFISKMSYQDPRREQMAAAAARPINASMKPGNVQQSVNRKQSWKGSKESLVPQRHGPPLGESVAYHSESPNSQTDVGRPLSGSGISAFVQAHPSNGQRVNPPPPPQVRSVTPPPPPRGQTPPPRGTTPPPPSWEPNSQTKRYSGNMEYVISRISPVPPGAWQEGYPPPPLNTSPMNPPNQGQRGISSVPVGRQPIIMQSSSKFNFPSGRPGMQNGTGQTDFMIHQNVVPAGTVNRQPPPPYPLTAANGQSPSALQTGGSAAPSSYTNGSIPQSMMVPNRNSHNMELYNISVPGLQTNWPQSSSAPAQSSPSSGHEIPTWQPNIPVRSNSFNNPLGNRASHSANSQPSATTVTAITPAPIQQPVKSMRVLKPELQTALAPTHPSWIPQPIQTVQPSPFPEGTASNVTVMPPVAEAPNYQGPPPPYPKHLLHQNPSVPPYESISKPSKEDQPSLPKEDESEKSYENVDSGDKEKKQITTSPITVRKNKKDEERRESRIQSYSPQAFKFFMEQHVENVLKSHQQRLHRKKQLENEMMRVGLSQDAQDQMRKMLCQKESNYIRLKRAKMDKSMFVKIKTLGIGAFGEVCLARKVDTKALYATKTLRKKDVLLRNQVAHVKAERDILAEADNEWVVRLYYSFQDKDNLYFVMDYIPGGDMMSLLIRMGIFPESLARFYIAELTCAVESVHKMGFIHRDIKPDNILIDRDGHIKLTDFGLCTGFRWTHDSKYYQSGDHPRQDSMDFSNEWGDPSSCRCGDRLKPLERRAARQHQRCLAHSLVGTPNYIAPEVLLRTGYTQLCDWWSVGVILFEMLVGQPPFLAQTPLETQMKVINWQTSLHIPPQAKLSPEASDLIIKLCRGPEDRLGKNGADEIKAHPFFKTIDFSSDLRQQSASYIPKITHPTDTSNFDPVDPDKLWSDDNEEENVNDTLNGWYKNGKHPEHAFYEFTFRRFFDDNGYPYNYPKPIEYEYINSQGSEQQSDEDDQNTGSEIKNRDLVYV
Excerpt: as §1

[14] = target: cellular kinases of SH-SY5Y cells (Homo sapiens, UniProt P10398); details: 2µM; SH-SY5Y cells; Labeling Site Lys2; DLKSNNIFLHEGLTVK; read-out: KiNativ in-cell binding, % Inhibition, ARAF
Excerpt: as §1

[15] = target: cellular kinases of SH-SY5Y cells (Homo sapiens, UniProt P04049); details: 2µM; SH-SY5Y cells; Labeling Site Lys2; DMKSNNIFLHEGLTVK; read-out: KiNativ in-cell binding, % Inhibition, RAF1
Excerpt: as §1

[16] = target: T6, cellular kinases of SH-SY5Y cells (Homo sapiens, UniProt Q8IZL9); details: 2µM; SH-SY5Y cells; Labeling Site Lys2; DLKPANLLISASGQLK; read-out: KiNativ in-cell binding, % Inhibition, CDK20
T6 construct: endogenous in cells; host or cells: SH-SY5Y
Excerpt: as §1

[17] = target: T7, cellular kinases of SH-SY5Y cells (Homo sapiens, UniProt P16591); details: 2µM, SH-SY5Y cells
T7 construct: endogenous in cells; host or cells: SH-SY5Y
Excerpt: as §1

[18] = target: cellular kinases of SH-SY5Y cells (Homo sapiens, UniProt Q13043); details: 2µM; SH-SY5Y cells; Labeling Site Lys1; ETGQIVAIKQVPVESDLQEIIK; read-out: KiNativ in-cell binding, % Inhibition, STK4/MST1
Excerpt: as §1

[19] = target: T8, cellular kinases of SH-SY5Y cells (Homo sapiens, UniProt P51957); details: 2µM; SH-SY5Y cells; Labeling Site Lys2; DLKTQNVFLTR; read-out: KiNativ in-cell binding, % Inhibition, NEK4
T8 construct: endogenous in cells; host or cells: SH-SY5Y
Excerpt: as §1

[20] = target: cellular kinases of SH-SY5Y cells (Homo sapiens, UniProt P15056); details: 2µM; SH-SY5Y cells; labeling site Lys2; peptide DLKSNNIFLHEDLTVK
Excerpt: as §1

In the case of `Cc1cccc(-c2nc(Nc3ccc4ncsc4c3)c3ccccc3n2)n1` [NK140], the “KiNativ in-cell binding, AAK1” value [1] is reported as -42.8, the inhibition at 2 µM [2] is reported as -33.5% and the inhibition at 2 µM [3] is reported as 23.9%. For the same compound, the inhibition at 2 µM [4] was -29.2%, the inhibition at 2 µM [5] was 27.7% and the “KiNativ in-cell binding, LYN” value [6] was -32.9. For the same compound, the inhibition at 2 µM ([7]; Labeling Site Activation Loop, VSDFGLTKEASSTQDTGKLPVK) was 21.6%, the inhibition at 2 µM ([7]; Labeling Site Lys1, VAVKCIK) was 4.7% and the inhibition at 2 µM [8] was 11.6%. For the same compound, the inhibition at 2 µM ([9]; Labeling Site Activation Loop, LLGAEEKEYHAEGGKVPIK) was 33.5%, the inhibition at 2 µM ([9]; Labeling Site Lys1, IPVAIKELR) was 14.4% and the inhibition at 2 µM ([10]; Labeling Site Activation Loop, KVPFAWCAPESLK) was -3.4%. The inhibition at 2 µM ([10]; Labeling Site Lys1, TVSVAVKCLKPDVLSQPEAMDDFIR) was 12.9%, the “KiNativ in-cell binding, NEK7” value [11] was -3.8 and the inhibition at 2 µM ([12]; Labeling Site Lys1, AQNKETSVLAAAKVIDTK, read-out: KiNativ in-cell binding, % Inhibition, SLK (SLK OR FYN/SLK)) was 16.4%. For the same compound, the inhibition at 2 µM ([12]; Labeling Site Lys2, DLKAGNILFTLDGDIK, read-out: KiNativ in-cell binding, % Inhibition, SLK) was 26.7%, the inhibition at 2 µM ([13]; Labeling Site Lys1, ALYATKTLR) was 20.9% and the inhibition at 2 µM ([13]; Labeling Site Lys2, DIKPDNILIDR) was 19.3%. For the same compound, the inhibition at 2 µM [14] was 28.7%, the inhibition at 2 µM [15] was 32.5% and the inhibition at 2 µM [16] was 9.5%. The “KiNativ in-cell binding, FER” value ([17]; labeling site Activation Loop, peptide QEDGGVYSSSGLKQIPIK) was -42.5, the “KiNativ in-cell binding, FER” value ([17]; labeling site Lys1, peptide TSVAVKTCKEDLPQELK) was -53.4 and the inhibition at 2 µM [18] was 39%. For the same compound, the inhibition at 2 µM [19] was -36% and the “KiNativ in-cell binding, BRAF, BRAF V600E” value [20] was -25.8.
